From ChEMBL document CHEMBL5030563, “Structure-Based Design of Dual-Acting Compounds Targeting Adenosine A2A Receptor and Histone Deacetylase as Novel Tumor Immunotherapeutic Agents” (J Med Chem, 2021) come the findings set out here.

Structures are written as SMILES.

Data set [1] deals with MC-38. In words: Antitumour activity against mouse MC38 cells in C57BL/6 mouse assessed as tumour growth inhibition at 50 mg/kg, ip, bid measured after 9 days relative to control. Conditions: MC-38, ip, 216 h, time 9 day, read-out: TGI. The data set is classed as functional.
For data set [2], the system named is MC-38. Kind of data set: Antitumour activity against mouse MC38 cells in C57BL/6 mouse assessed as tumour growth inhibition at 30 mg/kg, ip, bid measured after 9 days relative to control. It is filed as functional. Conditions: MC-38, ip, 216 h, time 9 day, read-out: TGI.
A further data set has as its system MC38. Kind of data set: Inhibition of HDAC in mouse MC38 cells assessed as increase in acetyl-histone H4 measured after 24 hrs by Western blot analysis. It is filed as cell-based. For orientation: In western blotting, separated proteins are transferred to a membrane and probed.
For another data set, the target named is T1, Histone deacetylase 7 (Homo sapiens, UniProt Q8WUI4).
T1 sequence (Q8WUI4 whole entry): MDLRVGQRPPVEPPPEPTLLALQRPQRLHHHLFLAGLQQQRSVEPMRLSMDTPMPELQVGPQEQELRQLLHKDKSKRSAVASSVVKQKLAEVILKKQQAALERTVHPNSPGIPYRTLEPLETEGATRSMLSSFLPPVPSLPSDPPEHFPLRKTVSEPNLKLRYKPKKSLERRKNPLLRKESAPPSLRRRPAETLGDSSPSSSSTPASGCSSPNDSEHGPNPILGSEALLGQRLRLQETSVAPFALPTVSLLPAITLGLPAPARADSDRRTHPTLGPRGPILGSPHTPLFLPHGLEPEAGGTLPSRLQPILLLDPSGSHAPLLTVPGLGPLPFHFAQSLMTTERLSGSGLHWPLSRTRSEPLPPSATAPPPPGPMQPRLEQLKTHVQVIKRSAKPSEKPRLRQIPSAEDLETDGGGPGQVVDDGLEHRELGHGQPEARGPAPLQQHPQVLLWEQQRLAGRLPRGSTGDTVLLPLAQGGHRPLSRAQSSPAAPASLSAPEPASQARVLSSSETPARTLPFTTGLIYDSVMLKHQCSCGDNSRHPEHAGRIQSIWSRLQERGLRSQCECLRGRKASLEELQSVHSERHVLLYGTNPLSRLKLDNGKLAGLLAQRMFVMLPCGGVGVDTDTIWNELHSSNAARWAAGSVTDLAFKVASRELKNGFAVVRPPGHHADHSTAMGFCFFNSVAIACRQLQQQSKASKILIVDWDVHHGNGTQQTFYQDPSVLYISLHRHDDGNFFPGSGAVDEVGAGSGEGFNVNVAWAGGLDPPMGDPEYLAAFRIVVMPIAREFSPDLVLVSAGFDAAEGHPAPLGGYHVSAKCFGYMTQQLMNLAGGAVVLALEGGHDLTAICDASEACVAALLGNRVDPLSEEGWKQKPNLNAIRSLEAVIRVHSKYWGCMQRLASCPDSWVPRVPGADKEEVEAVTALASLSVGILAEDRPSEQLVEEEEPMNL
Kind of data set: Inhibition of HDAC7 (unknown origin) assessed as release of 7-amino-4-methylcoumarin incubated in room temperature for 15 min measured by Spectra max microtitre plate reader.

Another data set deals with Histone deacetylase 2 (Homo sapiens, UniProt Q92769). In words: Inhibition of HDAC2 (unknown origin) assessed as release of 7-amino-4-methylcoumarin incubated in room temperature for 15 min measured by Spectra max microtitre plate reader.
Another data set concerns the target T2, Adenosine receptor A3 (Homo sapiens, UniProt P0DMS8).
T2 sequence (P0DMS8 whole entry): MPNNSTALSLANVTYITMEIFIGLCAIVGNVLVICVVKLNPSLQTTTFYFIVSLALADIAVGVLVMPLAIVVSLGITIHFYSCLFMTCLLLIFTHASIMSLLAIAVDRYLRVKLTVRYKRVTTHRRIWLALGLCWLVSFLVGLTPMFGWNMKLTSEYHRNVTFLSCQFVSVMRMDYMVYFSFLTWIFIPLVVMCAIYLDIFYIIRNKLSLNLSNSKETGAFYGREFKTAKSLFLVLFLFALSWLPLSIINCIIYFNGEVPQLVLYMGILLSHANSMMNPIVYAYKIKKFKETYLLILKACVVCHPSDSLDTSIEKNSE
In words: Displacement of [3H]DPCPX from human adenosine A3 receptor membrane (unknown origin) measured after 60 mins by scintillation counting analysis. It is filed as cell membranes. A general note: Displacement assays read how much labelled ligand stays bound in the presence of the test substance.

For another data set, the target named is Histone deacetylase 5 (Homo sapiens, UniProt Q9UQL6). In words: Inhibition of HDAC5 (unknown origin) assessed as release of 7-amino-4-methylcoumarin incubated in room temperature for 15 min measured by Spectra max microtitre plate reader.
Data set [3] is described as follows: Volume of distribution in ICR mouse at 5 mg/kg, iv up to 24 hrs by LC-MS/MS analysis. The data set is classed as ADME, organism-based. The following applies: in vivo.
A short description of data set [4]: Initial plasma concentration in ICR mouse at 5 mg/kg, iv up to 24 hrs by LC-MS/MS analysis. It is filed as ADME, organism-based.
A short description of data set [5]: Half life in ICR mouse at 5 mg/kg, iv up to 24 hrs by LC-MS/MS analysis. The data set is classed as ADME, organism-based. Conditions: in vivo.
Data set [6] can be described thus: Tmax in ICR mouse at 20 mg/kg, ip up to 24 hrs by LC-MS/MS analysis. It is filed as ADME, organism-based. The following applies: in vivo.
Data set [7] can be described thus: Cmax in ICR mouse at 20 mg/kg, po by LC-MS/MS analysis. It is filed as ADME, organism-based. Further details: route oral, dose 20 mg/kg. The following applies: in vivo.

Histone deacetylase 2, sequence (Q92769 whole entry): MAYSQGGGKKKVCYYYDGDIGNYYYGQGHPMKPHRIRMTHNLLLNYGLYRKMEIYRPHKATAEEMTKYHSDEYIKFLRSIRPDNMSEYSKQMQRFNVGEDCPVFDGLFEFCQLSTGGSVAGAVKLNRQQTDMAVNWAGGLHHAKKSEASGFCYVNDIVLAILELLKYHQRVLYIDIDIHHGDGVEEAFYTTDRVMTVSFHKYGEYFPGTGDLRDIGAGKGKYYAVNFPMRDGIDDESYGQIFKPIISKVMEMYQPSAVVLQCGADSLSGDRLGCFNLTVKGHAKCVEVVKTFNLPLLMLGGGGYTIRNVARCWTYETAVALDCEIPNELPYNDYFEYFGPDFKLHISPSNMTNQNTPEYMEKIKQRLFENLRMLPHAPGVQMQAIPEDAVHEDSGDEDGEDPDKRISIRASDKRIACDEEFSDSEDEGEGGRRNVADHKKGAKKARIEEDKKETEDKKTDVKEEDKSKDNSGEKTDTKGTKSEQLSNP
Histone deacetylase 5, sequence (Q9UQL6 whole entry): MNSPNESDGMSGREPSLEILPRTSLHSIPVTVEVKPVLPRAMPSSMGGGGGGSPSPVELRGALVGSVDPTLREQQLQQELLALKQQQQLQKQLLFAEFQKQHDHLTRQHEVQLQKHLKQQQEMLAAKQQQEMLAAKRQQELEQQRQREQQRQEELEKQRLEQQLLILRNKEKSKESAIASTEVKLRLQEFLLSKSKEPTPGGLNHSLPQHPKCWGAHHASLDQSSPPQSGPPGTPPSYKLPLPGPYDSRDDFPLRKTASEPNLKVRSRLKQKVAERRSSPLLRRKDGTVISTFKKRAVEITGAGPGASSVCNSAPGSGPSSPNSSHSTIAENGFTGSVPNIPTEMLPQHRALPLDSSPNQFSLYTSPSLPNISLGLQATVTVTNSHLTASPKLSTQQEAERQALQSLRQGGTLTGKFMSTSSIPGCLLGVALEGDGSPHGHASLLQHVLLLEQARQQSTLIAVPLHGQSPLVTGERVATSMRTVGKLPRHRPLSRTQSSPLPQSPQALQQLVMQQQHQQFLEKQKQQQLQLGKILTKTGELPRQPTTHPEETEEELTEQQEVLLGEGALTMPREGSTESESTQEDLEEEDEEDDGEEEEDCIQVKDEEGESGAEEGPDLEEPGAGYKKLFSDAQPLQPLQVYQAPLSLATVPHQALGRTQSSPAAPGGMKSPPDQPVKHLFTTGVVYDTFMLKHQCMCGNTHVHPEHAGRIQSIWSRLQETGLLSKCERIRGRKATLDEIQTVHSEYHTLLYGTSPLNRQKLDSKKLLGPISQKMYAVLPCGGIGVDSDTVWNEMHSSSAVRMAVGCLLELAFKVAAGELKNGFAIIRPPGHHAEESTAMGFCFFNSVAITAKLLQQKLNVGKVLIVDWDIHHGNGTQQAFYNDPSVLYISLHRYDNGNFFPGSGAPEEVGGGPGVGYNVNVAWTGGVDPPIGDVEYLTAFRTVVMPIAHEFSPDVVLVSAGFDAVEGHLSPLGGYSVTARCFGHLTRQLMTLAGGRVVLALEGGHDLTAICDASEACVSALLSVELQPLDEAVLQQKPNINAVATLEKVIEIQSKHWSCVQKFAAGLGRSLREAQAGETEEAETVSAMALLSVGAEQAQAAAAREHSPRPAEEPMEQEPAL

One may read the IC50 as the concentration that gives 50% inhibition. Usually Ki stands for a measure of affinity in units of concentration, obtained from inhibition or displacement. The term Vd denotes the apparent volume that relates the amount in the body to the concentration in plasma or blood. High values mean wide distribution into tissue, low ones little distribution into tissue. Broadly, the half-life is the time needed for the level to fall by half in the phase considered. Broadly, the Tmax is the time from dosing to the highest level. By Cmax is commonly meant the maximum level reached in the sampled fluid or tissue. In the case of `Nc1ccccc1NC(=O)c1ccc(CCn2ncc3c2nc(N)n2nc(-c4ccco4)nc32)cc1`, in the data set on MC-38 [1], the inhibition in vivo at 50 mg/kg is 81%. For the same molecule, the inhibition in vivo at 30 mg/kg in the data set on MC-38 [2] turned out to be 57.8%. Further, the Activity result with MC38 was “Dose-Dependent Effect”. Further, the IC50 on Histone deacetylase 7 was over 10 µM; on Histone deacetylase 2, 0.179 µM; on Histone deacetylase 5 it was over 10 µM. The same molecule gave a Ki at Adenosine receptor A3 of over 10 µM. This molecule gave a distribution volume (Vd) in data set [3] of 1.19 L/kg. This molecule also displayed a C0 at 24 h in data set [4] of 4580 ng/mL. In data set [5], this molecule showed a half-life of 17.1 min. Also, the Tmax in [6] was 25 min. This molecule also showed a maximum concentration (Cmax) in [7] of 1590 ng/mL.
